Key:
[1] = Quantum yield of fluorescence, metal free and Zn^2+ bound ligand; assay type: physicochemical; conditions: 50 mM PIPES, 100 mM KCl
Text: Quantum yield, Φ, may be obtained by comparison of the integrated area of the corrected emission spectrum of the sample with that of a reference solution. A preferred reference solution is a solution of fluorescein in 0.1 N NaOH, quantum efficiency 0.95. The concentration of the reference is adjusted to match the absorbance, Abs, of the test sample. The quantum yields may be calculated using the following equation: […]
The quantum yields of fluorescence were obtained by comparison of the integrated area of the corrected emission spectrum of the sample with that of a solution of fluorescein in 0.1 N NaOH, quantum efficiency 0.95. The concentration of the reference was adjusted to match the absorbance of the test sample. The quantum efficiency of the metal free ligand was measured using dilute sample of Formula 16 dye (˜1×10^−6 M, Abs≦0.1) in 10 mM PIPES, 100 mM KCl and 50 μM EDTA, pH=7.0. The quantum efficiency of the metal bound ligand was measured using a dilute sample of Formula 16 (˜8×10^−7 M, Abs≦0.1) in 10 mM PIPES, 100 mM KCl and 100 μM ZnCl2, pH=7.0. Emission for Formula 16 was integrated from 496 to 600 nm with excitation at 492 nm. The quantum yields were calculated with the following equation.
(§1) Under pseudo physiological conditions (50 mM PIPES, 100 mM KCl) at pH 7 in the presence of EDTA to scavenge advantageous metal ions, Formula 16 has a quantum yield of 0.25. The quantum yield increases to 0.92 in the presence of 25 μM Zn^2+. The excitation maximum of Formula 16 shifts from 498 nm (ε=36.8×10^3 M^−1cm^−1) to 490 nm (ε=44.9×10^3 M^−1cm^−1) upon Zn^2+ complexation. The slight hypsochromatic shift in the absorption wavelength is indicative of the coordination of the donor group (phenol) to Zn^2+. Since the phenol is incorporated in the π-system of the fluorophore, coordination to a metal would be expected to perturb the electronic structure of the system and produce a shift in the excitation wavelength. […] Under most conditions, cadmium concentrations are much lower than zinc concentrations in biological samples.

[2] = Fluorescence Zn^2+ binding titration (Kd) in Ca^2+/EDTA/Zn^2+ buffers; conditions: 1 mM EDTA, 2 mM Ca^2+, 0–1 mM total Zn^2+
Experimental: The first Kd associated with Zn^2+ binding was measured by a fluorescence titration as described previously. Spectra of the fluorescence of the ligand of Formula 16 were acquired by exciting at 490 nm and collecting and integrating from 500–575 nm. The measurements were performed in triplicate to ensure accuracy of the Kd value.
(§2) The fluorescent increase and binding affinity for Zn^2+ were characterized using a dual-metal single-ligand buffer system comprised of 1 mM EDTA, 2 mM Ca^2+ (or Mg^2+ up to 5 mM) and 0–1 mM total Zn^2+. […] The quantum yield of Formula 16 increases by ˜3.7-fold, and the integrated emission increases 6.0-fold.
(§3) The Zn^2+ affinity of Formula 16 was determined by performing these measurements in triplicate using different Ca^2+/EDTA/Zn^2+ buffers (FIG. 3, left panel). The fluorescence response of the ligand of Formula 16 to the solutions was measured by excitation of the solution at 490 nm with 0.25 nm slit width and detecting the emission over 500 to 575 nm. The buffer solutions contained 100 mM KCl, 50 mM PIPES, pH=7.2 mM Ca2+, 1 mM EDTA and varying free Zn2+concentrations of 0, 0.172, 0.424, 0.787, 1.32, 2.11, 3.34, 5.60, 10.2, and 24.1 nM. […] The fluorescence response fits to a Hill coefficient of 1, consistent with the formation of a 1:1 ligand:Zn^2+ complex responsible for the enhancement.

[3] = Fluorescence response to Zn^2+
Experimental: Fluorescence spectra were recorded on a Hitachi F-3010 spectrofluorimeter under the control of a Pentium-based PC running the SpectraCalc software package. Excitation was provided by a 150 W Xe lamp (Ushio Inc.) operating at a current of 5 A. All spectra were normalized for excitation intensity via a rhodamine quantum counter, and emission spectra were normalized by the manufacturer-supplied correction curves. Spectra were routinely acquired at 25° C., maintained by a circulating water bath in 1 cm×1 cm quartz cuvettes using 3 nm slit widths and a 240 nm/min scan speed. Fluorescence emission measurements were also acquired in a 1 cm×1 cm quartz cell using a Spex Fluorolog-2 instrument with 1 nm bandwidth slits. All spectra were corrected for emission intensity using the manufacturer-supplied photomultiplier curves. Spectra were routinely acquired at 25° C., maintained by a circulating water bath. […]
The fluorescence of the Formula 16 ligand is enhanced by protons. […]
Under pseudo physiological conditions (50 mM PIPES, 100 mM KCl) at pH 7 in the presence of EDTA to scavenge advantageous metal ions, Formula 57 has a quantum yield of 0.06. […] The fluorescence of Formula 57 also appears to be pH dependent. These fluorescence results are preliminary and are not intended to limit the scope of the invention in any way.

[4] = Fluorescence response to other metal ions
Experimental: Fluorescence spectra were recorded on a Hitachi F-3010 spectrofluorimeter under the control of a Pentium-based PC running the SpectraCalc software package. Excitation was provided by a 150 W Xe lamp (Ushio Inc.) operating at a current of 5 A. All spectra were normalized for excitation intensity via a rhodamine quantum counter, and emission spectra were normalized by the manufacturer-supplied correction curves. Spectra were routinely acquired at 25° C., maintained by a circulating water bath in 1 cm×1 cm quartz cuvettes using 3 nm slit widths and a 240 nm/min scan speed. Fluorescence emission measurements were also acquired in a 1 cm×1 cm quartz cell using a Spex Fluorolog-2 instrument with 1 nm bandwidth slits. All spectra were corrected for emission intensity using the manufacturer-supplied photomultiplier curves. Spectra were routinely acquired at 25° C., maintained by a circulating water bath.
as §1

[5] = Excitation maximum and extinction coefficient, free and upon Zn^2+ complexation; assay type: physicochemical; conditions: pH 7
Experimental: (§4) Absorption spectra were recorded on a Hewlett Packard 8453A diode array spectrophotometer under the control of a Pentium II-based PC running the Windows NT ChemStation software package, or a Cary 1E scanning spectrophotometer under the control of a Pentium PC running the manufacturer supplied software package. Spectra were routinely acquired at 25° C., maintained by a circulating water bath in 1 cm path length quartz cuvettes with a volume of 1.0 or 3.5 mL.
as §1

[6] = system: intracellular Zn^2+ in HeLa cells; test: Detection of intracellular Zn^2+ by fluorescence microscopy; assay type: cell-based
Experimental: (§5) The ability of a fluorescein-based ligand of Formula 16 to act as a sensor for intracellular Zn^2+ was tested in COS-7 (FIG. 5) and HeLa cells (FIG. 6), using a Formula 16. Both cell types were treated with 5 μM of the fluorescein-based ligand of Formula 16 for one hour at 37° C. […] Similar observations have been made using quinoline-based Zn^2+ probes in undifferentiated mammalian cells.
(§6) Intracellular Zn^2+ concentrations were increased by incubating the cells with Zn^2+ in the presence of pyrithione, a Zn^2+ ionophore. […] Available Zn^2+ was decreased by treatment with the membrane permeable Zn^2+-chelator, TPEN.

[7] = system: intracellular Zn^2+ in COS-7 cells; test: as above; assay type: cell-based
Experimental: as §5, §6

[8] = Absorption titration, second Zn^2+ binding event (Kd2); conditions: physiologically relevant pH
Experimental: as §4
The binding of Zn^2+ by a fluorescein-based ligand of Formula 16 is accompanied by changes in the absortion spectra. […] Addition of greater than one equivalent of Zn^2+ produces small changes in the absorption spectra of the ligand. The change fits to a Kd2 of 10±2 μM (486 nm), and decreases to 7.5±2.5 μM (508 nm).

[9] = pH dependent fluorescence (apparent fluorescence pKa); assay type: physicochemical
Experimental: The apparent fluorescence pKa was measured by plotting the integrated area of the emission spectrum against the pH recorded from pH=12.5–2.5. A 1 μM solution of the ligand of Formula 16 (10 mLs) containing ˜1 mM KOH and 100 mM KCl was adjusted to pH 12.5 and the UV-vis and fluorescence spectra were recorded. The pH was lowered in steps of ΔpH=0.5 with the addition of appropriate amounts of 6 N, 2 N, 0.5 N, 1 N, 0.1 N and 0.01 N HCl recording the absorption and emission spectra at each pH interval. The volume of the solution was controlled so the overall change in volume was <2%. Emission for the fluorescein-based ligand of […] was integrated from 500 to 700 nm. The resulting integrated emission areas were normalized, plotted against pH, and fit with the following nonlinear equation to calculate the pKa values. In the equation, ΔF1max and ΔF2max are the maximum fluorescence changes associated with the corresponding pKa values at the pH at which the maximum occurs.
The fluorescence of the Formula 16 ligand is enhanced by protons. […] At high pH, the magnitude of Zn^2+-induced fluorescent enhancement is more dramatic, increasing over 200-fold at pH 12.

[10] = Lactone formation under aqueous conditions; assay type: physicochemical; conditions: even at high [Zn^2+] (200 μM)
Experimental: Binding of the first Zn^2+ more efficiently interrupts the PET process and increases the band gap between the S0 and S1 energy levels. The Kd1 is lower than that of DPA because of the additional coordination by the phenolic oxygen. […] (200 μM). These conclusions are preliminary and are not intended to limit the scope of the invention in any way.

[11] = Zn^2+ affinity of reference chelator complexes; assay type: binding; conditions: pH 7
Experimental: as §2
as §3, with “nM. The measurements indicate that Formula 16 has a Kd of 0.5±0.1 nM (mean ±esd), obtained by a hyperbolic fit to the plot of the area under each fluorescence peak versus the Zn2+ concentration at which it was measured (FIG. 3, right panel).” for “nM.”

[12] = pH 7, in the presence of EDTA (metal free)
[13] = fit of integrated emission versus pH, 100 mM KCl

## O=C1OC2(c3ccccc31)c1ccc(O)c(CN(Cc3ccccn3)Cc3ccccn3)c1Oc1c2ccc(O)c1CN(Cc1ccccn1)Cc1ccccn1 [Formula 16]
[1]; pH 7, in the presence of 25 μM Zn^2+
  quantum yield: 0.92
[1]; [12]
  quantum yield: 0.25
[2]
  increase of integrated emission on Zn^2+ binding: 6.0 fold
  increase of quantum yield on Zn^2+ binding: ~3.7 fold
[3]; compared with other metal ions
  selectivity of the fluorescence response: Zn^2+ selective
[3]; pH 12
  Zn^2+-induced fluorescent enhancement: over 200 fold
[4]; Ca^2+
  change in fluorescence intensity: no measurable change in intensity
[4]; Cd^2+
  effect on fluorescence: increase in fluorescence
[4]; Co^2+
  effect on fluorescence: quench fluorescence
[4]; Cu^2+
  effect on fluorescence: quench fluorescence
[4]; Fe^2+
  effect on fluorescence: quench fluorescence
[4]; Mg^2+
  change in fluorescence intensity: no measurable change in intensity
[4]; Mn^2+
  effect on fluorescence: quench fluorescence
[4]; Ni^2+
  effect on fluorescence: quench fluorescence
[5]; before Zn^2+ complexation
  excitation maximum: 498 nm
  ε at excitation maximum: 36800 M⁻¹ cm⁻¹
[5]; upon Zn^2+ complexation
  excitation maximum: 490 nm
  ε at excitation maximum: 44900 M⁻¹ cm⁻¹
[6]; 5 μM ligand, one hour at 37° C.
  fluorescent staining of cells: bright fluorescent staining
[6]; TPEN
  fluorescent signal after Zn^2+ chelation: decreased the fluorescent signal
[6]; Zn^2+ with pyrithione
  fluorescent signal after raising intracellular Zn^2+: increase in the fluorescent signal
[7]; 5 μM ligand, one hour at 37° C., particularly perinuclear region (Golgi)
  fluorescent staining of cells: bright fluorescent staining
[7]; TPEN
  fluorescent signal after Zn^2+ chelation: decreased the fluorescent signal
[7]; Zn^2+ with pyrithione
  fluorescent signal after raising intracellular Zn^2+: increase in the fluorescent signal
[8]
  fluorescence change at the second binding event: not associated with a measurable change in fluorescence
[9]
  pH of maximum fluorescence: ~5.5
[9]; [13]
  apparent pKa,1: 3.9
  apparent pKa,2: 9.4
[9]; pH>12
  fluorescence at high pH: almost completely quenched
[10]
  lactone formation: no lactone formation

## [Zn+2].c1ccc(CNCc2ccccn2)nc1 [[Zn(DPA)]^2+]
[11]
  weaker binding than the ligand of Formula 16: approximately 2 orders of magnitude

## O=C1OC2(c3ccccc31)c1cc(Cl)c(O)c(CN(Cc3ccccn3)Cc3ccccn3)c1Oc1c2cc(Cl)c(O)c1CN(Cc1ccccn1)Cc1ccccn1 [Formula 31]
[1]; [12]
  quantum yield: 0.39
[1]; pH 7, in the presence of Zn^2+ (concentration not given)
  quantum yield: 0.87
[5]; upon Zn^2+ complexation
  excitation maximum: 507 nm
  ε at excitation maximum: 84000 M⁻¹ cm⁻¹
